Where a name gives a salt, the structure may show the parent alone.
Molecular target: T1, human B1 (Homo sapiens, UniProt P46663)
T1 construct: host or cells: CHO-K1
T1 sequence (P46663 1-353): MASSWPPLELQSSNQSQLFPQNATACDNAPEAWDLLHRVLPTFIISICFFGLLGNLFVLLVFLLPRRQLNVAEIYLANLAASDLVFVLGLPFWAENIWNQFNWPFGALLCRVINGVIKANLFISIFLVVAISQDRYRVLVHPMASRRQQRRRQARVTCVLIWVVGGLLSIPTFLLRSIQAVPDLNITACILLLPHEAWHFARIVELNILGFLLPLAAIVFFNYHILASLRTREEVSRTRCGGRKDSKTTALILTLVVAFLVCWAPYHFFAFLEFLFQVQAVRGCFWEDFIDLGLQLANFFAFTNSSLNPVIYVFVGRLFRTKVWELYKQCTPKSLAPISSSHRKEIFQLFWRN
Test: Calcium flux assay for Bradykinin B1 antagonist, CHO-K1 cell line expressing human B1
Type: cell-based
Conditions: CHO-K1 cells expressing human B1, agonist Lys-(Des-Arg)-Bradykinin, read-out: Potency (IC50 value against human B1)
Procedure, shortened: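 Inhibition of B1 agonist-evoked intracellular Ca2+ rise was followed by continuous fluorescence at 538 nm, with integrated, background-normalized signals plotted versus log compound concentration. Test compounds (eight 10-fold dilutions, triplicate, 1% DMSO final) were added 30 min at 25° C beforehand to Fluo-4AM-loaded human B1 CHO-K1 cells in pH 7.4 assay buffer.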

| IC50 | SMILES |
| --- | --- |
| 100 to 1000 nM | COc1cc(C)c(S(=O)(=O)N(C)Cc2cc(C(=O)NC(C)c3ccc(CN4CCC(O)C4)cc3)co2)c(C)c1 (centres unmarked) [Ex 91, N-(1-{4-[(3-Hydroxypyrrolidin-1-yl)methyl]phenyl}ethyl)-5-({[(4-methoxy-2,6-dimethylphenyl)sulfonyl](methyl)amino}methyl)furan-3-carboxamide] |
| 10 to 100 nM | COc1cc(C)c(S(=O)(=O)N(Cc2cc(C(=O)N3CCN(CC4CCN(C)CC4)CC3)co2)C2CC2)c(C)c1 [Ex 105, N-Cyclopropyl-4-methoxy-2,6-dimethyl-N-{[4-({4-[(1-methylpiperidin-4-yl)methyl]piperazin-1-yl}carbonyl)furan-2-yl]methyl}benzenesulfonamide trifluoroacetate] |
| 100 to 1000 nM | Cc1cc(S(=O)(=O)N(Cc2nc(C(=O)N(C)Cc3ccc(CN4CCCC4)cc3)co2)C2CC2)c(C)cc1Cl [Ex 218, 2-({[(4-Chloro-2,5-dimethylphenyl)sulfonyl](cyclopropyl)amino}methyl)-N-methyl-N-[4-(pyrrolidin-1-ylmethyl)benzyl]-1,3-oxazole-4-carboxamide trifluoroacetate] |
| 100 to 1000 nM | CN(CCc1ccc(C2=NCCN2)cc1)C(=O)c1coc(CN(C2CC2)S(=O)(=O)c2ccc(Cl)cc2Cl)n1 [Ex 214, 2-({Cyclopropyl[(2,4-dichlorophenyl)sulfonyl]amino}methyl)-N-{2-[4-(4,5-dihydro-1H-imidazol-2-yl)phenyl]ethyl}-N-methyl-1,3-oxazole-4-carboxamide trifluoroacetate] |
| < 10 nM | CN(Cc1ccc(C2=NCCN2)cc1)C(=O)c1coc(CN(C)S(=O)(=O)c2c(Cl)cc(Br)cc2Cl)c1 [Ex 19, 5-({[(4-bromo-2,6-dichlorophenyl)sulfonyl](methyl)amino}methyl)-N-[4-(4,5-dihydro-1H-imidazol-2-yl)benzyl]-N-methylfuran-3-carboxamide] |
| 10 to 100 nM | COc1cc(C)c(S(=O)(=O)N(C)Cc2nnc(C(=O)N(C)Cc3ccc(CN4CCC(OC)CC4)cc3)o2)c(C)c1 [Ex 283, 5-({[(4-Methoxy-2,6-dimethylphenyl)sulfonyl](methyl)amino}methyl)-N-{4-[(4-methoxypiperidin-1-yl)methyl]benzyl}-N-methyl-1,3,4-oxadiazole-2-carboxamide] |
| 100 to 1000 nM | COc1cc(C)c(S(=O)(=O)N(C)Cc2nc(C(=O)N3CCN(CC4CCN(C)CC4)CC3)no2)c(C)c1 [Ex 321, 4-Methoxy-N,2,6-trimethyl-N-{[3-({4-[(1-methylpiperidin-4-yl)methyl]piperazin-1-yl}carbonyl)-1,2,4-oxadiazol-5-yl]methyl}benzenesulfonamide] |
| 10 to 100 nM | COc1cc(C)c(S(=O)(=O)N(C)Cc2cc(C(=O)N(C)Cc3cc(F)cc(CN4CCCC4)c3)co2)c(C)c1 [Ex 158, N-[3-Fluoro-5-(pyrrolidin-1-ylmethyl)benzyl]-5-({[(4-methoxy-2,6-dimethylphenyl)sulfonyl](methyl)amino}methyl)-N-methylfuran-3-carboxamide trifluoroacetate] |
| 100 to 1000 nM | CCc1cc(Br)ccc1S(=O)(=O)N(C)Cc1cc(C(=O)NCc2cccc(CN3CCCC3)c2)co1 [Ex 16, 5-({[(4-bromo-2-ethylphenyl)sulfonyl](methyl)amino}methyl)-N-[3-(pyrrolidin-1-ylmethyl)benzyl]furan-3-carboxamide] |
| 10 to 100 nM | COc1cc(C)c(S(=O)(=O)N(Cc2nc(C(=O)N3CCN(Cc4c[nH]cn4)CC3)co2)C2CC2)c(C)c1 [Ex 249, N-Cyclopropyl-N-[(4-{[4-(1H-imidazol-4-ylmethyl)piperazin-1-yl]carbonyl}-1,3-oxazol-2-yl)methyl]-4-methoxy-2,6-dimethylbenzenesulfonamide] |
| 10 to 100 nM | COc1cc(C)c(S(=O)(=O)N(C)Cc2nc(C(=O)N3CCN(CCCN4CCCC4)CC3)no2)c(C)c1 [Ex 325, 4-Methoxy-N,2,6-trimethyl-N-[(3-{[4-(3-pyrrolidin-1-ylpropyl)piperazin-1-yl]carbonyl}-1,2,4-oxadiazol-5-yl)methyl]benzenesulfonamide] |
| 100 to 1000 nM | COc1cc(C)c(S(=O)(=O)N(C)Cc2nnc(C(=O)N(C)Cc3ccc(CN4CCC(N(C)C)C4)cc3)o2)c(C)c1 (centres unmarked) [Ex 285, N-(4-{[3-(Dimethylamino)pyrrolidin-1-yl]methyl}benzyl)-5-({[(4-methoxy-2,6-dimethylphenyl)sulfonyl](methyl)amino}methyl)-N-methyl-1,3,4-oxadiazole-2-carboxamide] |
| 100 to 1000 nM | COc1cc(C)c(S(=O)(=O)N(C)Cc2cc(C(=O)N(C)CCc3ccc(C4=NCCN4)cc3)c(C)o2)c(C)c1 [Ex 59, N-{2-[4-(4,5-dihydro-1H-imidazol-2-yl)phenyl]ethyl}-5-({[(4-methoxy-2,6-dimethylphenyl)sulfonyl](methyl)amino}methyl)-N,2-dimethylfuran-3-carboxamide] |
| < 10 nM | COc1cc(C)c(S(=O)(=O)N(Cc2nc(C(=O)N3CCN(CCCCN(C)C)CC3)co2)C2CC2)c(C)c1 [Ex 204, N-Cyclopropyl-N-{[4-({4-[4-(dimethylamino)butyl]piperazin-1-yl}carbonyl)-1,3-oxazol-2-yl]methyl}-4-methoxy-2,6-dimethylbenzenesulfonamide trifluoroacetate] |
| 100 to 1000 nM | COc1cc(C)c(S(=O)(=O)N(C)Cc2cc(C(=O)N(C)Cc3ccc(CN4CC(O)C4)cc3)co2)c(C)c1 [Ex 128, N-{4-[(3-Hydroxyazetidin-1-yl)methyl]benzyl}-5-({[(4-methoxy-2,6-dimethylphenyl)sulfonyl](methyl)amino}methyl)-N-methylfuran-3-carboxamide] |
| 100 to 1000 nM | COc1cc(C)c(S(=O)(=O)N(C)Cc2cc(C(=O)N(C)Cc3ccc(C(C)N4CCCC4)cc3)co2)c(C)c1 (centres unmarked) [Ex 88, 5-({[(4-Methoxy-2,6-dimethylphenyl)sulfonyl](methyl)amino}methyl)-N-methyl-N-[4-(1-pyrrolidin-1-ylethyl)benzyl]furan-3-carboxamide trifluoroacetate] |
| 100 to 1000 nM | COc1cc(C)c(S(=O)(=O)N(Cc2nc(C(=O)NCCC3CCCNC3)co2)C2CC2)c(C)c1 (centres unmarked) [Ex 159a, 2-({Cyclopropyl[(4-methoxy-2,6-dimethylphenyl)sulfonyl]amino}methyl)-N-(2-piperidin-3-ylethyl)-1,3-oxazole-4-carboxamide] |
| 100 to 1000 nM | COc1cc(C)c(S(=O)(=O)N(Cc2cc(C(=O)N3CCN(CCN4CCCCC4)CC3)co2)C2CC2)c(C)c1 [Ex 109, N-Cyclopropyl-4-methoxy-2,6-dimethyl-N-[(4-{[4-(2-piperidin-1-ylethyl)piperazin-1-yl]carbonyl}furan-2-yl)methyl]benzenesulfonamide trifluoroacetate] |
| 10 to 100 nM | COc1cc(C)c(S(=O)(=O)N(Cc2cc(C(=O)N3CCN(CCN4CCCC4)CC3)co2)C2CC2)c(C)c1 [Ex 112, N-Cyclopropyl-4-methoxy-2,6-dimethyl-N-[(4-{[4-(2-pyrrolidin-1-ylethyl)piperazin-1-yl]carbonyl}furan-2-yl)methyl]benzenesulfonamide trifluoroacetate] |
| < 10 nM | COc1cc(C)c(S(=O)(=O)N(Cc2nc(C(=O)N3CCN(CC4CCN(C)CC4)CC3)co2)C2CC2)c(C)c1 [Ex 191, N-Cyclopropyl-4-methoxy-2,6-dimethyl-N-{[4-({4-[(1-methylpiperidin-4-yl)methyl]piperazin-1-yl}carbonyl)-1,3-oxazol-2-yl]methyl}benzenesulfonamide trifluoroacetate trifluoroacetate] |
| < 10 nM | COc1cc(C)c(S(=O)(=O)N(Cc2noc(C(=O)N3CCC(CCN4CCCC4)CC3)n2)C2CC2)c(C)c1 [Ex 312, N-Cyclopropyl-4-methoxy-2,6-dimethyl-N-[(5-{[4-(2-pyrrolidin-1-ylethyl)piperidin-1-yl]carbonyl}-1,2,4-oxadiazol-3-yl)methyl]benzenesulfonamide] |
| < 10 nM | COc1cc(C)c(S(=O)(=O)N(C)Cc2cc(C(=O)N3CCCC(c4ccc(C5=NCCN5)cc4)C3)co2)c(C)c1 (centres unmarked) [Ex 30, N-{[4-({3-[4-(4,5-dihydro-1H-imidazol-2-yl)phenyl]piperidin-1-yl}carbonyl)furan-2-yl]methyl}-4-methoxy-N,2,6-trimethylbenzenesulfonamide] |
| 100 to 1000 nM | COc1cc(C)c(S(=O)(=O)N(C)Cc2cc(C(=O)N3CCN(CC4CCN(C)CC4)CC3)co2)c(C)c1 [Ex 32, 4-methoxy-N,2,6-trimethyl-N-{[4-({4-[(1-methylpiperidin-4-yl)methyl]piperazin-1-yl}carbonyl)furan-2-yl]methyl}benzenesulfonamide] |
| 10 to 100 nM | COc1cc(C)c(S(=O)(=O)N(Cc2nc(C(=O)N3CCC(c4ccncc4)CC3)co2)C2CC2)c(C)c1 [Ex 231, N-Cyclopropyl-4-methoxy-2,6-dimethyl-N-({4-[(4-pyridin-4-ylpiperidin-1-yl)carbonyl]-1,3-oxazol-2-yl}methyl)benzenesulfonamide] |
| 100 to 1000 nM | CN(Cc1cc(C(=O)NCc2ccc(CN3CCCC3)cc2)co1)S(=O)(=O)c1c(Cl)cc(Br)cc1Cl [Ex 27, 5-({[(4-bromo-2,6-dichlorophenyl)sulfonyl](methyl)amino}methyl)-N-[4-(pyrrolidin-1-ylmethyl)benzyl]furan-3-carboxamide] |
| < 10 nM | COc1cc(C)c(S(=O)(=O)N(Cc2cc(C(=O)N3CCN(CC4CCN(C)CC4)CC3)co2)C2CC2)c(C)c1 [Ex 89, N-Cyclopropyl-4-methoxy-2,6-dimethyl-N-{[4-({4-[(1-methylpiperidin-4-yl)methyl]piperazin-1-yl}carbonyl)furan-2-yl]methyl}benzenesulfonamide] |

Reference: US8623859B2, “Bradykinin B1 antagonists” (Evotec AG, priority 2008, dated 2014)
